Measurements published in patent publication US20050130252A1, “Stabilized susceptibility tests of aerobic pathogens” (Wyeth Holdings Corporation, priority 2003, published 2005).
≈ marks a conversion by molar mass, not a printed value. Where two headings read alike, the source gives them in different places.

Key:
S. aureus ATCC 29213 = assay: Broth microdilution MIC; type: cell-based, Staphylococcus aureus; details: for MIC: Staphylococcus aureus, ATCC29213, read-out: Minimal Inhibitory Concentration, S. aureus ATCC 29213
Method: The process for preparing susceptibility test medium are the following steps: • a. Preparing Mueller Hinton Broth II medium by adding 22 grams powdered media to 1.0 liter distilled water; • b. Autoclaving (121° C., 15 psi, 15 minutes) and cooling the medium; • c. Adding Oxyrase® up to about 10% final volume and keeping at 35-37° C. in an incubator for 30 minutes; • d. Adding about 50 μL to each well of a 96 well microtiter plate; • e. Weighing drug and adding broth to drug to bring up to about (standard 128 μg/ml); • f. Adding 50 μL of the drug to the first column of the titer plate; • g. Diluting by two-fold serial diluting across or down the plate. • h. Preparing a Prompt™ inoculum at 10^8 CFU/ml; • i. Diluting inoculum 1:100 in the broth at […] in 9.9 ml (1:100) is 10^6 colony forming units (CFU) forming the adjusted inoculum; • j. Adding 50 μL of the adjusted inoculum to the wells of the microtiter plate; • k. Incubating the plates at 35-37° C. for 18-22 hours; and • l. Reading, with the unaided eye, the MIC.
(§1) The in vitro activities of tigecycline and control antibiotics were determined by the broth microdilution method as recommended by the NCCLS. (National Committee for Clinical Laboratory Standards, 2003. Methods for Dilution Antimicrobial Susceptibility Tests for Bacteria That Grow Aerobically; Approved Standards: M7-A6, Sixth ed, vol. 23., National Committee for Clinical Laboratory Standards Wayne, Pa.) was used for the standard procedures. MBH with 5% lysed horse blood was used for testing S. pneumoniae and Haemophilus Test Medium was used for testing H. influenzae. Oxyrase® (Oxyrase Inc, Mansfield, Ohio) was used according to the manufacturer's instructions by adding 1 ml of Oxyrase® to 50 ml of media. Media age studies were performed by preparing MHB in multiple flasks, then storing the media under various conditions. MICs were usually performed in duplicate on each day of testing. Storage under anaerobic conditions was conducted in an anaerobic chamber (MACS MG 1000, Don Whitley Scientific LTD). The pH of the media was determined by pH meter (Corning 430). A comparison of the in vitro activity of tigecycline by agar and broth dilution methodolgies with and without Oxyrase® against clinical isolates is shown in Table 1.

ATCC reference strains = assay: Broth microdilution MIC, reference strains taken together; type: cell-based
Method: The MICs for TGC were determined under various conditions by broth microdilution using NCCLS procedures. The MHB was stored at 2° C., room temperature, anaerobically and with the addition of Oxyrase® to determine the effect of various conditions. Time Kill kinetics was used to confirm MIC differences observed with the broth microdilution for aged and fresh media results.
as §1
To determine the effect of media age on the in vitro activity of tigecycline, MHB was prepared and stored at room temperature or 2° C. for 28 days. […] The aging of the media was slowed somewhat in the media stored at […] compared to the media stored at room temperature.

[1] = Table 8, S. aureus ATCC 29213, Mueller Hinton Broth + Oxyrase, n = 240
[2] = Table 8, S. aureus ATCC 29213, Mueller Hinton Broth, n = 320
[3] = Table 9, S. aureus ATCC 29213, Mueller Hinton Broth + Oxyrase, n = 29
[4] = Table 9, S. aureus ATCC 29213, Mueller Hinton Broth, n = 131

In the case of `CN(C)c1cc(NC(=O)CNC(C)(C)C)c(O)c2c1C[C@H]1C[C@H]3[C@H](N(C)C)C(O)=C(C(N)=O)C(=O)[C@@]3(O)C(O)=C1C2=O` [Tigecycline, tigecycline], the MIC (S. aureus ATCC 29213; MHB II + 0.05% Catalase) is reported as 0.5 µg/mL, the MIC (S. aureus ATCC 29213; MHB II + 0.05% L-ascorbic Acid) is reported as 2 µg/mL and the MIC (S. aureus ATCC 29213; MHB II + 0.05% L-cysteine) is reported as 0.25 µg/mL. The MIC (S. aureus ATCC 29213; MHB II + 0.05% Thioglycolate) was 0.25 µg/mL, the MIC (S. aureus ATCC 29213; MHB II + 2% Oxyrase) was 0.12 µg/mL and the MIC (S. aureus ATCC 29213; Mueller Hinton Broth II (Fresh)) was 0.25 µg/mL (≈ 0.427 µM). The MIC (S. aureus ATCC 29213; Mueller Hinton Broth II (MHB II)) was 0.25 to 0.5 µg/mL (≈ 0.427 to 0.854 µM), the MIC (S. aureus ATCC 29213; media Aged Anaerobic, N = 4) was 0.06 to 0.12 µg/mL (≈ 0.102 to 0.205 µM) and the “Number of Occurrences of MIC 0.06 ug/ml” value (S. aureus ATCC 29213; [1]) was 14. The “Number of Occurrences of MIC 0.12 ug/ml” value (S. aureus ATCC 29213; [1]) was 203, the “Number of Occurrences of MIC 0.25 ug/ml” value (S. aureus ATCC 29213; [1]) was 22 and the “Number of Occurrences of MIC 0.5 ug/ml” value (S. aureus ATCC 29213; [1]) was 1. The “Number of Occurrences of MIC 0.12 ug/ml” value (S. aureus ATCC 29213; [2]) was 1, the “Number of Occurrences of MIC 0.25 ug/ml” value (S. aureus ATCC 29213; [2]) was 219 and the “Number of Occurrences of MIC 0.5 ug/ml” value (S. aureus ATCC 29213; [2]) was 29. The “Number of Occurrences of MIC 1 ug/ml” value (S. aureus ATCC 29213; [2]) was 62, the “Number of Occurrences of MIC 2 ug/ml” value (S. aureus ATCC 29213; [2]) was 9 and the “Number of Occurrences of MIC 0.06 ug/ml” value (S. aureus ATCC 29213; [3]) was 2. The “Number of Occurrences of MIC 0.12 ug/ml” value (S. aureus ATCC 29213; [3]) was 15, the “Number of Occurrences of MIC 0.25 ug/ml” value (S. aureus ATCC 29213; [3]) was 12 and the “Number of Occurrences of MIC 0.06 ug/ml” value (S. aureus ATCC 29213; [4]) was 1. For the same molecule, the “Number of Occurrences of MIC 0.12 ug/ml” value (S. aureus ATCC 29213; [4]) was 27, the “Number of Occurrences of MIC 0.25 ug/ml” value (S. aureus ATCC 29213; [4]) was 78 and the “Number of Occurrences of MIC 0.5 ug/ml” value (S. aureus ATCC 29213; [4]) was 25. For the same molecule, the “Increase in the MICs over the four week period of media storage” value (ATCC reference strains; ATCC reference organisms, MHB stored 28 days, Table 4) was 3 to 4 dilution, the “MICs in aged media supplemented with Oxyrase compared with fresh media” value (ATCC reference strains; Table 3) was “nearly identical to those determined in fresh media” and the “MICs in fresh media supplemented with Oxyrase compared with unsupplemented fresh media” value (ATCC reference strains; Table 3) was “not significantly different”. The “MICs in commercially prepared media and media aged 2 weeks at RT under room air higher than in freshly prepared media” value (ATCC reference strains; Table 6) was 1-4 dilutions, the “MICs in media stored under anaerobic conditions compared with fresh media” value (ATCC reference strains; Table 6) was “nearly identical to the results obtained in fresh media” and the “More active in freshly prepared media than in commercially prepared and aged media” value (ATCC reference strains; reference strains) was 2 to 3 dilution. The MIC (ATCC reference strains; reference strains, addition of Oxyrase) was 0.06 to 0.25 µg/mL (≈ 0.102 to 0.427 µM), the MIC (ATCC reference strains; reference strains, aged medium stored under anaerobic conditions prior to testing) was 0.03 to 0.12 µg/mL (≈ 0.0512 to 0.205 µM) and the MIC (ATCC reference strains; reference strains, commercially prepared and aged (7 day old) media from powder) was 0.12 to 0.25 µg/mL (≈ 0.205 to 0.427 µM). The MIC (ATCC reference strains; reference strains, freshly prepared media) was 0.03 to 0.12 µg/mL (≈ 0.0512 to 0.205 µM).
